From patent US20240132484A1, “BROAD SPECTRUM ANTIVIRAL COMPOUNDS TARGETING THE SKI COMPLEX” (priority 2020, published 2024)
Several values for one entry are separate records, joined by “and”; a condition that tells them apart may be missing. Equal entries are not always repeated. Where two headings read alike, the source gives them in different places.

Experiments:
SARS2 = assay type: cell-based, SARS-CoV-2; settings: for Percentage Infection Relative to Appropriate DMSO Control with Avg Background Subtraction: Greiner Celigo plates; for Infection Data, Average, Mean: average of Exp 1-3 (SMW475, SMW477, SMW478)
cells (nuclei count) = settings: for Toxicity Data, Average, Mean: average of Exp 1-3 (SMW475, SMW477, SMW478)
WDR61 = WDR61 (Homo sapiens, UniProt Q9GZS3); experiment: Surface Plasmon Resonance with pure WDR61 protein

SMILES: CN(C)CCN(Cc1cocn1)Cc1cccs1 [SILCS35]
- Percentage Infection Relative to Appropriate DMSO Control with Avg Background Subtraction (SARS2; Exp 1 (SMW475), 1 uM): 90.30% and 94.24% and 95.59%
- Percentage Infection Relative to Appropriate DMSO Control with Avg Background Subtraction (SARS2; Exp 1 (SMW475), 5 uM): 93.18% and 101.74% and 91.54%
- Percentage Infection Relative to Appropriate DMSO Control with Avg Background Subtraction (SARS2; Exp 1 (SMW475), 10 uM): 105.47% and 116.87% and 111.43%
- Percentage Infection Relative to Appropriate DMSO Control with Avg Background Subtraction (SARS2; Exp 1 (SMW475), 25 uM): 79.86% and 56.98% and 87.77%
- Percentage Infection Relative to Appropriate DMSO Control with Avg Background Subtraction (SARS2; Exp 1 (SMW475), 50 uM): 83.26% and 106.28% and 78.51%
- Percentage Infection Relative to Appropriate DMSO Control with Avg Background Subtraction (SARS2; Exp 2 (SMW477), 1 uM): 131.21% and 119.10% and 117.97%
- Percentage Infection Relative to Appropriate DMSO Control with Avg Background Subtraction (SARS2; Exp 2 (SMW477), 5 uM): 138.25% and 128.36% and 147.80%
- Percentage Infection Relative to Appropriate DMSO Control with Avg Background Subtraction (SARS2; Exp 2 (SMW477), 10 uM): 155.83% and 113.76% and 119.79%
- Percentage Infection Relative to Appropriate DMSO Control with Avg Background Subtraction (SARS2; Exp 2 (SMW477), 25 uM): 125.42% and 107.58% and 104.40%
- Percentage Infection Relative to Appropriate DMSO Control with Avg Background Subtraction (SARS2; Exp 2 (SMW477), 50 uM): 109.53% and 98.67% and 105.03%
- Percentage Infection Relative to Appropriate DMSO Control with Avg Background Subtraction (SARS2; Exp 3 (SMW478), 1 uM): 105.76% and 80.57% and 90.16%
- Percentage Infection Relative to Appropriate DMSO Control with Avg Background Subtraction (SARS2; Exp 3 (SMW478), 5 uM): 134.19% and 78.79% and 94.59%
- Percentage Infection Relative to Appropriate DMSO Control with Avg Background Subtraction (SARS2; Exp 3 (SMW478), 10 uM): 151.59% and 95.94% and 77.50%
- Percentage Infection Relative to Appropriate DMSO Control with Avg Background Subtraction (SARS2; Exp 3 (SMW478), 25 uM): 126.08% and 121.76% and 139.01%
- Percentage Infection Relative to Appropriate DMSO Control with Avg Background Subtraction (SARS2; Exp 3 (SMW478), 50 uM): 140.10% and 158.92% and 157.74%
- Percentage Inhibition Average 1 μM (SARS2; SARS2, 1 μM): −2.77%
- Screening data (Relative infection to DMSO controls) Average 1 μM (SARS2; SARS2, 1 μM, 100=DMSO control): 102.77
- Percentage Inhibition Average 5 μM (SARS2; SARS2, 5 μM): −12.05%
- Screening data (Relative infection to DMSO controls) Average 5 μM (SARS2; SARS2, 5 μM, 100=DMSO control): 112.05
- Percentage Inhibition Average 10 μM (SARS2; SARS2, 10 μM): −16.46%
- Screening data (Relative infection to DMSO controls) Average 10 μM (SARS2; SARS2, 10 μM, 100=DMSO control): 116.46
- Percentage Inhibition Average 25 μM (SARS2; SARS2, 25 μM): −5.43%
- Screening data (Relative infection to DMSO controls) Average 25 μM (SARS2; SARS2, 25 μM, 100=DMSO control): 105.43
- Percentage Inhibition Average 50 μM (SARS2; SARS2, 50 μM): −15.34%
- Screening data (Relative infection to DMSO controls) Average 50 μM (SARS2; SARS2, 50 μM, 100=DMSO control): 115.34
- Average (relative infection to DMSO over the 5 tested concentrations) (SARS2; SARS2, average over 1 to 50 uM, 100=DMSO control): 110.41
- Infection Data, Average, Mean (SARS2; n 9, 1 uM): 102.77%
- Infection Data, Average, Mean (SARS2; n 9, 5 uM): 112.05%
- Infection Data, Average, Mean (SARS2; n 9, 10 uM): 116.46%
- Infection Data, Average, Mean (SARS2; n 9, 25 uM): 105.43%
- Infection Data, Average, Mean (SARS2; n 9, 50 uM): 115.34%
- Relative cell count to DMSO controls, Average 1 μM (cells (nuclei count); 1 μM, toxicity data, 100=DMSO control): 105.31
- Relative cell count to DMSO controls, Average 5 μM (cells (nuclei count); 5 μM, toxicity data, 100=DMSO control): 100.64
- Relative cell count to DMSO controls, Average 10 μM (cells (nuclei count); 10 μM, toxicity data, 100=DMSO control): 89.77
- Relative cell count to DMSO controls, Average 25 μM (cells (nuclei count); 25 μM, toxicity data, 100=DMSO control): 93.31
- Relative cell count to DMSO controls, Average 50 μM (cells (nuclei count); 50 μM, toxicity data, 100=DMSO control): 60.5
- Toxicity Data, Average, Mean (cells (nuclei count); n 9, 1 uM): 105.31%
- Toxicity Data, Average, Mean (cells (nuclei count); n 9, 5 uM): 100.64%
- Toxicity Data, Average, Mean (cells (nuclei count); n 9, 10 uM): 89.77%
- Toxicity Data, Average, Mean (cells (nuclei count); n 9, 25 uM): 93.31%
- Toxicity Data, Average, Mean (cells (nuclei count); n 9, 50 uM): 60.50%
- Relative cell count to DMSO controls, Average (for correlation analysis) (cells (nuclei count); average value over the 5 tested concentrations (1 to 50 uM)): 89.91
- direct binding to WDR61 by SPR (WDR61): binding directly to WDR61
